Like-named read-outs stand apart in the source and are kept apart here.
Legend:
[1] = tested on: lymph node cells (LNC) reactive to MBP (87-99); assay: Antigen-specific lymph node cell proliferation assay; format: cell-based, Lewis rat; conditions: 10 μM peptide, 3 days, [3H]-thymidine; FIG. 4
Procedure: FIG. 4 is a graph displaying the proliferative response of MBP-reactive lymph node cells to position 91-substituted analogues. Two different substitutions were tested. The proliferative response of lymph node cells to 10 μM of MBP (87-99), motilin, A91 or K91 was determined. Proliferation is shown as counts per minute. BKG, no peptide added; 87-99, MBP (87-99); motilin, an unrelated peptide; A91, peptide analogue with alanine at position 91; K91, peptide analogue with D-lysine at position 91.
As an alternative to the use of T cell lines as described above, draining lymph node cells from Lewis rats immunized with MBP (87-99) may be used. […] Cultures are harvested on fiberglass filters and counted in a scintillation counter. Mean CPM and the standard error of the mean are calculated from data determined in triplicate cultures. […]
For the assay, 100 μl of the lymph node suspension was added to 96-well flat-bottom wells in the presence of an equal volume of medium containing 10 μM of various peptides (including: motilin as a negative control; MBP87-99; medium only, or alanine or D-amino acid substituted at position 91). […] The plates were then harvested with a Matrix filtermate harvester (Packard) and counted using an Automatic Direct Beta Counter (Packard). Mean cpm and the standard error of the mean were calculated from triplicate wells.

[2] = tested on: anti MBP (87-99) T cell line L87-99; format: cell-based, rat; conditions: all concentrations, 10^-4 μM to 10^-2 μM analogue; APC prepulsed with 0.2 μM native peptide; FIG. 5
Procedure: FIG. 5 is a graph illustrating the ability of alanine-substituted analogues to antagonize T cells. […] Results are shown as stimulation index ±SE.
The second or alternative assay is a competition assay for T cell proliferation. In this assay, antigen presenting spleen cells are first irradiated and then incubated with native MBP (87-99) peptide for 2-4 hours. These cells are then washed and further cultured with T cells reactive to MBP (87-99). Various concentrations of candidate peptide analogues are included in cultures for an additional 3 days. Following this incubation period, each culture is pulsed with 1 μCi of [^3H]-thymidine for an additional 12-18 hours. Cultures are then harvested on fiberglass filters and counted as above. Mean CPM and standard error of the mean are calculated from data determined in triplicate cultures. Peptide analogues which inhibit proliferation to approximately 25% at a concentration of 50 μM or greater are suitable for further screening.
T cell antagonism was detected in a prepulsed proliferation assay as described by De Magistris et al. (Cell […]:625, 1992) with minor modifications. […] The cultures were then harvested on fiberglass filters and the proliferative response expressed as CPM±SD or as stimulation index (mean CPM from test cultures divided by mean CPM from control cultures).

[3] = tested on: IFN-γ production from draining lymph node cells; assay: IFN-γ production by draining lymph node cells (ELISA); format: cell-based, rat; conditions: all doses; supernatant after 48 hours; FIG. 7
Procedure: (§1) FIG. 7 are a pair of graphs showing the amount of IFN-γ and TNF-α production from draining lymph node cells (DLNC). DLNC were stimulated with MBP (87-99) alone (●) or with the peptide analogue (91K>A) (▪).
(§2) Cytokine production in draining lymph node cells from rats injected with MBP (87-99) alone or with the peptide analogue (91K>A) was determined. IFN-γ and TNF-α production were measured.
(§3) Draining lymph node cells (10^7 cells/ml) were stimulated in vitro with different concentrations of MBP (87-99) or peptide analogue. Supernatants were collected after 24 and 48 hours. IFN-γ was determined after 48 hours by use of a rat IFN-γ ELISA kit (GIBCO BRL). TNF-α was measured after 24 hours by ELISA kit (Genzyme Corp., Cambridge, Mass.).

[4] = tested on: EAE; assay: Reversal of EAE induced by adoptive transfer of L87-99 T cells; format: in vivo, rat
[5] = tested on: TNF-α production from draining lymph node cells; assay: TNF-α production by draining lymph node cells (ELISA); format: cell-based, rat; conditions: all doses greater than 20 μM; supernatant after 24 hours; FIG. 7
Procedure: as §1, §2, §3

[6] = tested on: EAE; conditions: rat, in vivo
Procedure: In addition, as a safety measure, but not essential to this invention, suitable peptide analogues may be tested for direct induction of EAE. As described in detail in Example 2, various amounts of peptide analogues are injected at the base of the tail of rats, and the rats examined daily for signs of EAE. A peptide analogue which is not considered to cause EAE has a mean cumulative score of less than or equal to 1 over seven days when 1 mg (5 mg/kg) in complete Freund's adjuvant is injected.
MBP peptides and analogues were dissolved in phosphate-buffered saline (PBS) and emulsified with an equal volume of incomplete Freund's adjuvant supplemented with 4 mg/ml heat-killed Mycobacterium tuberculosis H37Ra in oil (Difco Laboratories, Inc., Detroit, Mich.). Rats were immunized subcutaneously in the hind foot pads with 0.1 ml of the emulsion and were monitored for clinical signs daily by an observer blind to the treatment protocol. For intravenous injections MBP peptides and analogues were dissolved in normal saline. EAE was scored as follows: 0, clinically normal; 1, flaccid tail; 2, hind limb paralysis; 3, front and hind limb paralysis.
The ability of peptide analogues to cause EAE is assessed in vivo. Rats were injected with MBP (87-99) or (91K>A) peptide analogue as described in Example 2. Animals were monitored daily for evidence of EAE. Rats receiving MBP (87-99) had 100% incidence (18/18 rats) of EAE with a mean maximum clinical score of 2.4±0.2. In contrast, 0/12 rats receiving the peptide analogue (91k>A) had EAE.

[7] = tested on: EAE; assay: Prevention of EAE by co-injection of the peptide analogue with an EAE-inducing peptide; format: in vivo, rat
[8] = as Peptide 2, co-injected with Peptide 1 MBP(68-88), ratio 1:1
[9] = as Peptide 2, co-injected with Peptide 1 MBP(87-99), ratio 1:1, in complete Freund's adjuvant

CC[C@H](C)[C@H](NC(=O)[C@H](CC(N)=O)NC(=O)[C@H](C)NC(=O)[C@H](Cc1ccccc1)NC(=O)[C@H](Cc1ccccc1)NC(=O)[C@H](Cc1c[nH]cn1)NC(=O)[C@@H](N)C(C)C)C(=O)N[C@H](C(=O)N[C@H](C(=O)N1CCC[C@H]1C(=O)N[C@@H](CCCNC(=N)N)C(=O)N[C@H](C(=O)N1CCC[C@H]1C(=O)O)[C@@H](C)O)[C@@H](C)O)C(C)C [91K>A]
proliferative response of MBP (87-99)-reactive lymph node cells (in words) [1]: failed to respond as well | antagonism of the response of L87-99 to native peptide (in words) [2]: effectively antagonize | IFN-γ production (in words) [3]: marked decrease in cytokine production | time to complete remission ([4]; after single injection (2 mg/ml) of soluble analogue): ≤ 36 h | rats going into complete remission without further signs of paralysis ([4]; single injection (2 mg/ml) of soluble analogue to rats with hind limb paralysis, 5 days after 10^7 L87-99 T cells, p<0.015): six out of six | TNF-α production (in words) [5]: marked decrease in cytokine production | EAE Incidence [6]: 0/12 | EAE Mean Maximum Clinical Score [6]: 0 | incidence of EAE (rats with EAE / rats injected) [6]: 0/12 | EAE Incidence [7, 8]: 6/6 | EAE Mean Maximum Clinical Score [7, 8]: 3 ± 0 | EAE Incidence [7, 9]: 0/12 | EAE Mean Maximum Clinical Score [7, 9]: 0 | inhibition of induction of EAE by MBP (68-88) (in words) ([7]; co-immunization): not inhibit induction of EAE | inhibition of induction of EAE by MBP (87-99) (in words) ([7]; co-immunization): could specifically inhibit induction of EAE

Source: patent publication US6489299B2, “Methods for treatment of multiple sclerosis using peptide analogues at position 91 of human myelin basic protein” (Stanford University Medical Center, priority 1994, dated 2002)
